The results in this text go back to patent publication US11566007B2, “Ras inhibitors” (Revolution Medicines, Inc., priority 2019, dated 2023).

The subject of one assay is NCI-H358 (K-Ras G12C). The assay is described as follows: CellTiter-Glo cell viability assay, NCI-H358. Format: cell-based, human. Conditions: Homo sapiens, NCI-H358, 120 h, NCI-H358, 5-day treatment; class symbols; read-out: Additional H358 Cell Viability assay data (K-Ras G12C, IC50). The gist of the method: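 Steps: compound dispensed into wells holding cells; incubation to day 5; ~30 min room-temperature equilibration; luminescence read; sample signal divided by mean DMSO signal, times 100; four-parameter logistic curve fit.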

The target in the next assay is KRAS G12S (Homo sapiens (Human), UniProt P01116+P62937, G12S). The assay is described as follows: Ras-Raf (BRAF RBD) disruption / FRET / MOA assay, KRAS G12S. The assay is classed as biochemical. The note with it: Ras-Raf disruption/FRET/MOA assay; class symbols; read-out: KRAS G12S FRET data IC50. A digest of the protocol:
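A 10-point, 3-fold dilution series topping at 30 μM final was incubated 3 h at 25° C with the Ras/cyclophilin A/BRAF RBD mixture.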

Chain of KRAS G12S (P01116-2 other isoform, or with tags, fused parts or gaps G12S): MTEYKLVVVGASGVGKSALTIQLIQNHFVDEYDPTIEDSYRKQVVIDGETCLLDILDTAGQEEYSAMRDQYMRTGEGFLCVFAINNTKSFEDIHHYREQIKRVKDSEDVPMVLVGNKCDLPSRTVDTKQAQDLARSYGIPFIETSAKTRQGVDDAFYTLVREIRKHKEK
Chain of KRAS G12S (P62937 whole entry): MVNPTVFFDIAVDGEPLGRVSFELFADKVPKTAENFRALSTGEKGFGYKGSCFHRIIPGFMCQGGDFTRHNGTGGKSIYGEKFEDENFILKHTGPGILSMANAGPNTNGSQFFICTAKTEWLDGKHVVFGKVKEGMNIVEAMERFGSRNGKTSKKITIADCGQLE

The IC50 is the concentration that inhibits the measured activity by half. With `CCn1c(-c2cccnc2[C@H](C)OC)c2c3cc(ccc31)-c1csc(n1)C[C@H](NC(=O)CN1CC[C@@]3(CCN(C(=O)C#CC(C)(C)N4CCC4)C3)C1)C(=O)N1CCC[C@H](N1)C(=O)OCC(C)(C)C2` (atropisomer, axis not shown) [Example A364], the IC50 in the assay on NCI-H358 (K-Ras G12C) was 100 to 1000 nM; at KRAS G12S, 1000 to 10000 nM.

Consider `C=CC(=O)N1CCC2(CCN(C(=O)N(C)[C@H](C(=O)N[C@H]3Cc4nc(cs4)-c4ccc5c(c4)c(c(-c4cccnc4[C@H](C)OC)n5CC)CC(C)(C)COC(=O)[C@@H]4CCCN(N4)C3=O)C(C)C)CC2)C1` (atropisomer, axis not shown) [Example A698], for which the IC50 in the assay with NCI-H358 (K-Ras G12C) lay in the range of 10 to 100 nM; at KRAS G12S, 100 to 1000 nM.

Take `C=CC(=O)N1C[C@H](C)N(C(=O)N(C)[C@H](C(=O)N[C@H]2Cc3nc(cs3)-c3ccc4c(c3)c(c(-c3cccnc3[C@H](C)OC)n4CC)CC(C)(C)COC(=O)[C@@H]3CCCN(N3)C2=O)C(C)C)CC12CC2` (atropisomer, axis not shown) [Example A586]: the IC50 was in the range of 10 to 100 nM in the assay with NCI-H358 (K-Ras G12C) and 100 to 1000 nM at KRAS G12S.

Turning to `C=CS(=O)(=O)N1CC[C@H](C(=O)N(C)[C@H](C(=O)N[C@H]2Cc3cc(O)cc(c3)-c3ccc4c(c3)c(c(-c3cncnc3)n4CC)CC(C)(C)COC(=O)[C@@H]3CCCN(N3)C2=O)C(C)C)C1` [Example A172], the IC50 was in the range of 10 to 100 nM in the assay with NCI-H358 (K-Ras G12C) and 1000 to 10000 nM on KRAS G12S.

`CCn1c(-c2cccnc2[C@H](C)OC)c2c3cc(ccc31)-c1cccc(c1)C[C@H](NC(=O)[C@@H](COC1CN(C(=O)C#C[C@H]3COCCN3C)C1)C(C)C)C(=O)N1CCC[C@H](N1)C(=O)OCC(C)(C)C2` (atropisomer, axis not shown) [Example A644]: the IC50 with NCI-H358 (K-Ras G12C) is below 10 nM; on KRAS G12S, above 10000 nM.

Turning to `C=CC(=O)N1CCN(C(=O)N(C)[C@H](C(=O)N[C@H]2Cc3nc(cs3)-c3ccc4c(c3)c(c(-c3cccnc3[C@H](C)OC)n4CC)CC(C)(C)COC(=O)[C@@H]3CCCN(N3)C2=O)C(C)C)[C@@H]2CC[C@@H]21` (atropisomer, axis not shown) [Example A718], the IC50 with NCI-H358 (K-Ras G12C) was below 10 nM; on KRAS G12S, 100 to 1000 nM.

For `C=CC(=O)N1CC[C@H](C(=O)N(C)[C@H](C(=O)N[C@H]2Cc3cccc(c3)-c3ccc4c(c3)c(c(-c3cccnc3[C@H](C)OC)n4CC#CC)CC(C)(C)COC(=O)[C@@H]3CCCN(N3)C2=O)C(C)C)C1` (atropisomer, axis not shown) [Example A531], the results for the 50% inhibitory concentration (IC50) in the assay with NCI-H358 (K-Ras G12C) and at KRAS G12S were 10 to 100 nM and 1000 to 10000 nM, respectively.

`C=CC(=O)N1CCOC2(C1)CN(C(=O)N(C)[C@H](C(=O)N[C@H]1Cc3nc(cs3)-c3ccc4c(c3)c(c(-c3cccnc3[C@H](C)OC)n4CC(F)(F)F)CC(C)(C)COC(=O)[C@@H]3CCCN(N3)C1=O)C(C)C)C2` (atropisomer, axis not shown) [Example A604]: the figures for the IC50 with NCI-H358 (K-Ras G12C) and at KRAS G12S were below 10 nM and 100 to 1000 nM, respectively.

For the compound `CCn1c(-c2cccnc2[C@H](C)OC)c2c3cc(ccc31)-c1cccc(c1)C[C@H](NC(=O)[C@H](C(C)C)N1CC[C@@]3(CCN(C(=O)C#C[C@H]4COCCN4C4COC4)C3)C1=O)C(=O)N1CCC[C@H](N1)C(=O)OCC(C)(C)C2` (atropisomer, axis not shown) [Example A567], the results for the IC50 in the assay on NCI-H358 (K-Ras G12C) and at KRAS G12S were below 10 nM and 1000 to 10000 nM, respectively.

For `CCn1c(-c2cccnc2[C@H](C)OC)c2c3cc(ccc31)-c1cnc(o1)C[C@H](NC(=O)[C@@H](COC1CN(C(=O)C#CC(C)(C)N(C)C)C1)C(C)C)C(=O)N1CCC[C@H](N1)C(=O)OCC(C)(C)C2` (atropisomer, axis not shown) [Example A649], the results for the IC50 with NCI-H358 (K-Ras G12C) and at KRAS G12S were 10 to 100 nM and above 10000 nM, respectively.

In the case of `C=CC(=O)N1CC[C@H](C(=O)N(C)[C@H](C(=O)N[C@H]2Cc3cc(O)cc(c3)-c3ccc4c(c3)c(c(-c3cn(C)cn3)n4CC)CC(C)(C)COC(=O)[C@@H]3CCCN(N3)C2=O)C(C)C)C1` [Example A113], the IC50 was in the range of 100 to 1000 nM with NCI-H358 (K-Ras G12C) and 1000 to 10000 nM at KRAS G12S.

Consider `C=CC(=O)N1CC[C@H](C(=O)N(C)[C@H](C(=O)N[C@H]2Cc3cc(cc(C(F)F)c3)-c3ccc4c(c3)c(c(-c3cccnc3[C@H](C)OC)n4CC)CC(C)(C)COC(=O)[C@@H]3CCCN(N3)C2=O)C(C)C)C1` (atropisomer, axis not shown) [Example A341, (3S)-1-acryloyl-N-((2S)-1-(((6^3S,4S)-2^5-(difluoromethyl)-1^1-ethyl-1^2-(2-((S)-1-methoxyethyl)pyridin-3-yl)-10,10-dimethyl-5,7-dioxo-6^1,6^2,6^3,6^4,6^5,6^6-hexahydro-1^1H-8-oxa-1(5,3)-indola-6(1,3)-pyridazina-2(1,3)-benzenacycloundecaphane-4-yl)amino)-3-methyl-1-oxobutan-2-yl)-N-methylpyrrolidine-3-carboxamide], for which the 50% inhibitory concentration (IC50) with NCI-H358 (K-Ras G12C) fell in the range of 10 to 100 nM; on KRAS G12S, 1000 to 10000 nM.

In the case of `CO[C@@H](C)c1ncccc1-c1c2c3cc(ccc3n1CC(F)(F)F)-c1cccc(c1)C[C@H](NC(=O)[C@H](C(C)C)N(C)C(=O)N1CCC3(CC1)CN(C(=O)/C=C/CN(C)C)C3)C(=O)N1CCC[C@H](N1)C(=O)OCC(C)(C)C2` (atropisomer, axis not shown) [Example A555], the 50% inhibitory concentration (IC50) fell in the range of 10 to 100 nM with NCI-H358 (K-Ras G12C) and 100 to 1000 nM on KRAS G12S.

Consider `C=CC(=O)N1C[C@H](C)N(C(=O)N(C)[C@H](C(=O)N[C@H]2Cc3nc(cs3)-c3ccc4c(c3)c(c(-c3cccnc3[C@H](C)OC)n4CC)CC(C)(C)COC(=O)[C@@H]3CCCN(N3)C2=O)C(C)C)[C@@H](C)C1` (atropisomer, axis not shown) [Example A386], for which the IC50 was 10 to 100 nM in the assay on NCI-H358 (K-Ras G12C) and 100 to 1000 nM on KRAS G12S.

`CCn1c(-c2cccnc2[C@H](C)OC)c2c3cc(ccc31)-c1csc(n1)C[C@H](NC(=O)[C@H](C(C)C)N(C)C(=O)N1CCC13CN(C(=O)C#CC(C)(C)N(C)C)C3)C(=O)N1CCC[C@H](N1)C(=O)OCC(C)(C)C2` (atropisomer, axis not shown) [Example A656]: the IC50 is 10 to 100 nM in the assay on NCI-H358 (K-Ras G12C) and 100 to 1000 nM at KRAS G12S.

As to `C=CC(=O)N1CC[C@H](C(=O)N(C)[C@H](C(=O)N[C@H]2Cc3cccc(c3)-c3ccc4c(c3)c(c(-c3cnccc3[C@H](C)OC)n4CC)CC(C)(C)COC(=O)[C@@H]3CCCN(N3)C2=O)C(C)C)C1` (single isomer, unassigned) [Example A115], the IC50 in the assay with NCI-H358 (K-Ras G12C) was 10 to 100 nM; on KRAS G12S it was 1000 to 10000 nM.

As for `CCn1c(-c2cccnc2[C@H](C)OC)c2c3cc(ccc31)N1CCO[C@@H](C[C@H](NC(=O)[C@@H](COC3CN(C(=O)C#CC(C)(C)N(C)C)C3)C(C)C)C(=O)N3CCC[C@H](N3)C(=O)OCC(C)(C)C2)C1` (atropisomer, axis not shown) [Example A377, (2R)-2-(((1-(4-(dimethylamino)-4-methylpent-2-ynoyl)azetidin-3-yl)oxy)methyl)-N-((2^2S,6^3S,4S)-1^1-ethyl-1^2-(2-((S)-1-methoxyethyl)pyridin-3-yl)-10,10-dimethyl-5,7-dioxo-6^1,6^2,6^3,6^4,6^5,6^6-hexahydro-1^1H-8-oxa-2(4,2)-morpholina-1(5,3)-indola-6(1,3)-pyridazinacycloundecaphane-4-yl)-3-methylbutanamide], the results for the IC50 in the assay on NCI-H358 (K-Ras G12C) and on KRAS G12S were below 10 nM and above 10000 nM, respectively.

With `CCn1c(-c2cccnc2[C@H](C)OC)c2c3cc(ccc31)-c1cccc(c1)C[C@H](NC(=O)[C@@H](COC1CN(C(=O)C#C[C@@H]3OCCCN3C)C1)C(C)C)C(=O)N1CCC[C@H](N1)C(=O)OCC(C)(C)C2` (atropisomer, axis not shown) [Example A648], the IC50 with NCI-H358 (K-Ras G12C) was 10 to 100 nM; at KRAS G12S, above 10000 nM.

On to `C=CC(=O)N1CC[C@H](C(=O)N(C)[C@H](C(=O)N[C@H]2Cc3cccc(c3)-c3ccc4c(c3)c(c(-c3cc5c(nc3[C@H](C)OC)CCN(C)C5)n4CC)CC(C)(C)COC(=O)[C@@H]3CCCN(N3)C2=O)C(C)C)C1` (atropisomer, axis not shown) [Example A461], for which the results for the half-maximal inhibitory concentration (IC50) with NCI-H358 (K-Ras G12C) and on KRAS G12S were below 10 nM and 1000 to 10000 nM, respectively.

As for `C=CC(=O)N1CC[C@@]2(COCCN2C(=O)N(C)[C@H](C(=O)N[C@H]2Cc3nc(cs3)-c3ccc4c(c3)c(c(-c3cccnc3[C@H](C)OC)n4CC)CC(C)(C)COC(=O)[C@@H]3CCCN(N3)C2=O)C(C)C)C1` (atropisomer, axis not shown) [Example A677], the results for the 50% inhibitory concentration (IC50) in the assay with NCI-H358 (K-Ras G12C) and on KRAS G12S were below 10 nM and 100 to 1000 nM, respectively.

Take `C=CC(=O)N1CC[C@H](C(=O)N(C)[C@H](C(=O)N[C@H]2Cc3cc(O)cc(c3)-c3ccc4c(c3)c(c(-c3cc(C#N)cnc3COC)n4CC)CC(C)(C)COC(=O)[C@@H]3CCCN(N3)C2=O)C(C)C)C1` [Example A105]: the IC50 in the assay on NCI-H358 (K-Ras G12C) was in the range of 10 to 100 nM; on KRAS G12S it was 100 to 1000 nM.

As to `C=CC(=O)N1CC[C@@]2(C1)CN(C(=O)N(C)[C@H](C(=O)N[C@H]1Cc3nc(cs3)-c3ccc4c(c3)c(c(-c3cccnc3[C@H](C)OC)n4CC)CC(C)(C)COC(=O)[C@@H]3CCCN(N3)C1=O)C(C)C)CCO2` (atropisomer, axis not shown) [Example A353], the IC50 in the assay on NCI-H358 (K-Ras G12C) lay within 10 to 100 nM; at KRAS G12S, 100 to 1000 nM.

`C=CC(=O)N(C)[C@H]1CN(C(=O)N(C)[C@H](C(=O)N[C@H]2Cc3nc(cs3)-c3ccc4c(c3)c(c(-c3cccnc3[C@H](C)OC)n4CC)CC(C)(C)COC(=O)[C@@H]3CCCN(N3)C2=O)C(C)C)C[C@H]1F` (atropisomer, axis not shown) [Example A631]: the IC50 with NCI-H358 (K-Ras G12C) was below 10 nM; at KRAS G12S it was 100 to 1000 nM.

In the case of `CCn1c(-c2cccnc2[C@H](C)OC)c2c3cc(ccc31)-c1csc(n1)C[C@H](NC(=O)[C@H](C(C)C)N(C)C(=O)N1CCC3(CC1)CN(C(=O)/C=C/CF)C3)C(=O)N1CCC[C@H](N1)C(=O)OCC(C)(C)C2` (atropisomer, axis not shown) [Example A622], the concentration for half-maximal inhibition (IC50) with NCI-H358 (K-Ras G12C) was 10 to 100 nM; at KRAS G12S it was 100 to 1000 nM.
